The text below walks through data of patent US20260355199A1, “COMPOSITIONS AND METHODS FOR TREATING OR PREVENTING NONALCOHOLIC STEATOHEPATITIS (NASH), ANOREXIA, DEPRESSION, ENDOMETRIOSIS, AND OTHER DISEASES OR DISORDERS” (priority 2022, published 2026).

In one test the test system is TET3. Put plainly: TET3 protein stability (cycloheximide time course) in GT1-7 cells. Type of test: cell-based. The note with it: 10 μM, with cycloheximide; mouse neuronal cells. The procedure:
(§1) For Bobcat339 treatment (FIG. 15A and FIG. 15B), GT1-7 cells grown in 24-well plates at 2×10^5 cells/well were incubated with vehicle or Bobcat339 at a final concentration of 10 μM for 6 h, followed by RNA and protein extractions. For TET3 protein stability assay (FIG. 15B), GT1-7 cells in 24-well plates at 2×10^5 cells/well were incubated with vehicle or Bobcat339 at a final concentration of 10 μM for 3 hours, followed by addition of cycloheximide (CHX, Cell Signaling, 2112) at a final concentration of […] in the presence of 10 μM of Bobcat339. Proteins were harvested at 0, 1, 2, and 3 hours after addition of CHX. For TET3 expression restoration experiments (FIG. 15C and FIG. 15D), GT1-7 or SH-SY5Y cells seeded in 24-well plates at 2×10^5 cells/well were infected with Ad-GFP or Ad-TET3 at 4000 gc/cell. Following 16 h of infection, vehicle or Bobcat339 were added at a final concentration of 10 μM. Protein and RNA were isolated 48 h later and analyzed.

The test system of test [1] is TET2. Briefly: TET2 protein stability (cycloheximide) in MDMs. Type of test: cell-based, human. The note with it: 10 μM, with cycloheximide. The procedure: For TET protein stability assay of MDMs, cells in 24-well plates were incubated with vehicle or Bobcat339 at a final concentration of 10 μM for 3 h, followed by addition of cycloheximide (CHX, Cell Signaling, 2112) at a final concentration of 50 μg/mL. Proteins were harvested at 0, 2, 4, and 6 hours after addition of CHX.

Test [2] deals with Tet3 mRNA. Briefly: Tet3 mRNA in the ARC of mice. Type of test: in vivo, mouse. The note with it: 2.5 mg/kg i.p., two days. The procedure:
To test whether Bobcat339 affects TET3 protein expression in AgRP neurons, Agrp-IRES-Cre::LSL-Cas9-GFP mice with GFP expression specifically in AgRP neurons were intraperitoneally injected with vehicle or Bobcat339 at 2.5 mg/kg, followed by isolation of ARCs under fed conditions (9:00-11:00) two days later. This dose was chosen based on the dose response studies. TET2 expression was widespread but was negligible in AgRP neurons.
Bobcat339 powder (Sigma-Aldrich, SML2611) was freshly dissolved in DMSO (vehicle) at a concentration of 50 mg/mL and filtered through a 0.22 micron. It was further diluted with 1×PBS to a final concentration of 0.5 mg/mL before injections. Mice were injected intraperitoneally with Bobcat339 at 1 mg/kg, 2.5 mg/kg, or 4 mg/kg.
Total RNAs were extracted from neuronal cells or homogenized hypothalamic arcuate nucleus tissue samples using PureLink RNA Mini Kit (Ambion, 12183025). cDNA was synthesized using PrimeScript RT Reagent Kit in a 20 μl reaction containing 0.5-1 μg of total RNA. Real-time quantitative PCR was performed in a 15 μl reaction containing 0.5-1 μl of cDNA using SsoAdvanced Universal SYBR Green Supermix in a Bio-Rad iCycler. Specificity was verified by melting curve analysis. The Ct values of each sample were used in the post-PCR data analysis. Gene expression levels were normalized against RPLP0.

Test [3] has as its system Bobcat339-treated ABA mice. Briefly: Behavioral tests (OFT, TST, FST). Type of test: in vivo, mouse. The source says: It has been reported that AgRP neuron-specific TET3 knockdown reduces stress-like behaviors with decreased levels of circulating corticosterone. […] The open field test (OFT) has been used to assess general locomotor activity and anxiety; the tail suspension test (TST) and forced swim test (FST) have been used to evaluate behavioral despair and also to test the efficacy of new antidepressant compounds. All three tests (OFT, TST, and FST) have been used in previous studies to assess behavioral impacts of AgRP neurons in mice (Miletta, M. C. et al., 2020, Nature Metabolism, 2:1204-1211).
For all behavioral tests, mice were transferred to the testing room 1 h prior to testing for acclimation to the environment. All behavioral tests were performed in the afternoon (14:00-16:00). All behavioral apparatus was wiped with 70% ethanol prior to each trial and between trials. The open field (OF) apparatus consisted of a 56×56 cm open arena with 30 cm high walls. The mouse was placed into the center of the arena and allowed to move freely for 10 min with the activity being recorded and tracked by LimeLight 3 software (Actimetrics, Coulbourn Instruments). The software recorded and analyzed the distance and time traveled in the central (28×28 cm central area of the OF) and outer areas of the arena. The tail suspension test (TST) and the forced swim test (FST) lasted for 6 min and the total amount of immobility time during the final 4 min was measured for each animal.

In test [4] the test system is Tet3 mRNA. Briefly: Tet3 mRNA (RT-qPCR) in GT1-7 cells. Type of test: cell-based, mouse. The note with it: 10 μM, 6 h. The procedure:
as §1
Total RNAs were extracted from neuronal cells or homogenized hypothalamic arcuate nucleus tissue samples using PureLink RNA Mini Kit (Ambion, 12183025). cDNA was synthesized using PrimeScript RT Reagent Kit in a 20 μl reaction containing 0.5-1 μg of total RNA. Real-time quantitative PCR was performed in a 15 μl reaction containing 0.5-1 μl of cDNA using SsoAdvanced Universal SYBR Green Supermix in a Bio-Rad iCycler. […]

The test system of test [5] is TET2. Briefly: TET2 protein in human MDMs. Type of test: cell-based. The note with it: 24 h. The procedure: Bobcat339 Treatment of Cultured Cells Bobcat339 powder (Sigma-Aldrich, SML2611) was freshly dissolved in DMSO at a concentration of 5 mM and filtered through a 0.22 micron. Cells grown at a density of 80-90% were incubated in growth media with vehicle (DMSO) or Bobcat339 at a final concentration of 10 μM for 24 h, followed by RNA and protein extraction.
For cultured MDMs, cells were primed with CM-Endo or TGF-β1 (PeproTech, 100-21) for 36-48 h (to increase TET3 expression) before Bobcat339 treatment.
Cells were homogenized in situ using a pipette tip in 2×SDS-sample buffer with 10% β-mercaptoethanol at RT followed by heating at 100 °C for 5 min with occasional vortexing. The samples were loaded onto a 4-15% gradient SDS gel (Bio-rad, 456-8086) (10 μL/well) and transferred to nitrocellulose membranes, followed by Western blot analysis. The antibodies used were anti-TET3 (diluted at 1:1000, GeneTex, GTX121453 for human; diluted at 1:1000, Active Motif, 61395 for mouse), anti-TET2 (diluted at 1:1000, Proteintech, 21207-1-AP for human/mouse), anti-TGF-β1 (diluted at 1:1000, Abcam, ab215715 for human), anti-Lin28A (diluted at 1:1000, Cell Signaling, 3978S), and HRP-conjugated anti-GAPDH (dilution 1:5000; Proteintech, HRP-60004). The secondary antibody was HRP-linked Anti-rabbit IgG (dilution 1:10,000; Rockland, 611-1322).

“Also recorded” adds a separate entry of the source.

On to `Nc1nc(=O)n(-c2cccc(-c3ccccc3)c2)cc1Cl` [Bobcat339, 4-Amino-1-[1,1′-biphenyl]-3-yl-5-chloro-2(1H)-pyrimidinone], for which the TET3 protein stability entry in the test on TET3 is “induced protein degradation of TET3; also recorded: less stable”. Also, in the test with TET2 [1], the TET2 protein stability result is recorded as “destabilized both proteins”. Besides, in the test with Tet3 mRNA [2], the “Tet3 mRNA in the ARC” value is “did not alter the mRNA abundance of Tet3; also recorded: no significant change”. Also, in test [3] (forced swim test), the FST immobility time entry was “spent less immobility time”. For the same molecule, in test [3] (open field test), the “OFT time spent in the center zone” value is “increased time spent in the center zone” and the “OFT total distance travelled” value is reported as “no differences in the total distance travelled”. In addition, the TST immobility time entry in test [3] (tail suspension test) is “spent less immobility time”. Moreover, the “Tet3 mRNA abundance” value with Tet3 mRNA [4] is reported as “without affecting its mRNA abundance; also recorded: without altering its mRNA abundance; also recorded: no significant difference between the two groups”. For the same molecule, the TET2 protein level result in the test on TET2 [5] (10 μM) is reported as “not affected; also recorded: not TET2”. Moreover, in the test on TET2 [5] (10 mM (so in the source)), the TET2 protein level entry is given as “not significantly affected”.
